The test system of one assay is BALB/3T3. Put plainly: In vitro antiproliferative activity, SRB assay, normal fibroblasts BALB/3T3. As to conditions: Mus musculus, BALB/3T3, normal murine embryonic fibroblasts, 72 h, mean ± SD. It is filed as cell-based. The source says: (§1) The A549 and MCF7 cell lines were purchased from the European Collection of Authenticated Cell Cultures (ECACC, Salisbury, U.K., 86012804 and 86012803). The LoVo cell line was purchased from the American Type Culture Collection (CCL-229, ATCC, Manassas, VA), and LoVo/DX by courtesy of Prof. E. Borowski (Technical University of Gdańsk, Gdańsk, Poland). The BALB/3T3 cell line was purchased from the American Type Culture Collection (CCL-163, ATCC, Manassas, VA). All of the cell lines are maintained in the Institute of Immunology and Experimental Therapy (IIET), Wroclaw, Poland.
(§2) A549 cells were cultured in a mixture of OptiMEM and Roswell Park Memorial Institute (RPMI) 1640 (1:1) medium (IIET, Wroclaw, Poland), supplemented with 10% fetal bovine serum HyClone (GE Healthcare) and 2 mM L-glutamine (Sigma-Aldrich, Germany). MCF7 cells were cultured in a mixture of Eagle’s medium (IIET, Wroclaw, Poland), supplemented with 10% fetal bovine serum, 2 mM L-glutamine, and insulin (Sigma-Aldrich, Germany). LoVo and LoVo/DX cells were cultured in F12K medium (Corning), supplemented with 10% fetal bovine serum HyClone (GE Healthcare) and 0.1 μg/mL doxorubicin (Accord) for LoVo/DX. BALB/3T3 fibroblasts were cultured in Dulbecco’s medium (Gibco), supplemented with 10% fetal bovine serum (GE Healthcare) and 2 mM L-glutamine (Sigma-Aldrich, Germany). All culture media contained antibiotics: 100 U/mL penicillin (Polfa-Tarchomin, Poland) and 0.1 mg/mL streptomycin (Sigma-Aldrich, Germany). All cell lines were cultured during entire experiment in humid atmosphere at 37 °C and 5% CO2.
(§3) All cell lines were exposed to each tested agent at different concentrations in the range 100–0.00001 μg/mL for 72 h. The cells were also exposed to the reference drug cisplatin (Teva Pharmaceuticals, Poland) and doxorubicin (Accord Healthcare Limited, U.K.). Additionally, all cell lines were exposed to dimethyl sulfoxide (DMSO) (solvent used for tested compounds) (POCh, Poland) at concentrations corresponding to those present in tested agents dilutions. After 72 h, sulforhodamine B (SRB) assay was performed.[57]
(§4) After 72 h of incubation with the tested compounds, the cells were fixed in situ by gently adding cold 50% trichloroacetic acid (TCA) (POCh, Poland) and were incubated at room temperature for 1 h. Then, the wells were washed four times with water and air-dried. Next, 0.1% solution of sulforhodamine B (Sigma-Aldrich, Germany) in 1% acetic acid (POCh, Poland) was added to each well and the plates were incubated at room temperature for 0.5 h. After incubation time, unbound dye was removed by washing plates four times with 1% acetic acid, whereas stain bound to cells was solubilized with 10 mM Tris base (Sigma-Aldrich, Germany). Absorbance of each solution was read at Synergy H4 Hybrid Multi-Mode Microplate Reader (BioTek Instruments) at the 540 nm wavelength.
(§5) IC50 values were calculated in Excel sheet using formulas adapted by Mateusz Psurski fromCheburator 0.4, Dmitry Nevozhay software (version 1.2.0 software by Dmitry Nevozhay, 2004–2014, http://www.cheburator.nevozhay.com, freely available) for each experiment.[58] Compounds at each concentration were tested in triplicate in a single experiment, and each experiment was repeated at least three times independently.
(The SRB assay estimates cell density from bound dye.)

In another assay the test system is MCF-7. Description: cells. In kind it is cell-based, human. As to conditions: for IC50: Homo sapiens, MCF7, 72 h, read-out: MCF-7 IC50 (nM); for MCF-7 SI: selectivity index = IC50 BALB/3T3 / IC50 MCF-7.
Source text: as §1, §2, §3, §4, §5

Another assay has as its system A549. Description: cells. It is filed as cell-based, human. As to conditions: for IC50: Homo sapiens, A549, 72 h, read-out: A549 IC50 (nM), 72 h exposure, SRB, mean ± SD; for A549 SI: selectivity index = IC50 BALB/3T3 / IC50 A549.
Source text: as §1, §2, §3, §4, §5

A further assay concerns LoVo/DX. Description: cells. The conditions noted are these: for IC50: Homo sapiens, LoVo/DX, 72 h, read-out: LoVo/DX IC50 (nM), 72 h exposure, SRB, mean ± SD; for LoVo/DX RI: resistance index = IC50 LoVo/DX / IC50 LoVo; for LoVo/DX SI: selectivity index = IC50 BALB/3T3 / IC50 LoVo/DX. It is filed as cell-based, human.
Source text: as §1, §2, §3, §4, §5

A further assay has as its system LoVo. Description: cells. In kind it is cell-based, human. As to conditions: for IC50: Homo sapiens, LoVo, 72 h, read-out: LoVo IC50 (nM); for LoVo SI: selectivity index = IC50 BALB/3T3 / IC50 LoVo.
Source text: as §1, §2, §3, §4, §5

Regarding `CNc1ccc2c(cc1=O)[C@@H](NC(C)=O)CCc1cc(OC)c(OC)c(OC)c1-2` [Compound 2, 10-N-methylaminocolchicine], the IC50 in the assay on BALB/3T3 was 6 ± 2.3 nM. Further, in the assay with MCF-7, the IC50 turned out to be 3.5 ± 0.7 nM and the “MCF-7 SI” value came out at 1.7. In the assay with A549, the IC50 was 4.4 ± 0.6 nM and the “A549 SI” value turned out to be 1.4. Besides, in the assay on LoVo/DX, the IC50 worked out at 230 ± 17 nM, the “LoVo/DX RI” value is 43 and the “LoVo/DX SI” value is recorded as below 0.1. In the assay on LoVo, the IC50 was 5.4 ± 0.7 nM and the “LoVo SI” value is on record as 1.1.
Consider `CNc1ccc2c(cc1=O)[C@@H](N)CCc1cc(OC)c(OC)c(OC)c1-2` [Compound 3, N-deacetyl-10-methylamino-10-demethoxycolchicine], for which, in the assay on BALB/3T3, the IC50 stood at 16 ± 2.1 nM. Besides, in the assay on MCF-7, the IC50 is 8.1 ± 1.3 nM and the “MCF-7 SI” value was 2.0. For the same compound, in the assay with A549, the IC50 amounted to 12 ± 2.3 nM and the “A549 SI” value amounted to 1.3. Also, in the assay with LoVo/DX, the IC50 is 55 ± 13 nM, the “LoVo/DX RI” value is on record as 6.2 and the “LoVo/DX SI” value is reported as 0.3. Further, in the assay with LoVo, the IC50 stood at 8.9 ± 1.4 nM and the “LoVo SI” value is 1.8.
With `CCCc1cn([C@H]2CCc3cc(OC)c(OC)c(OC)c3-c3ccc(NC)c(=O)cc32)nn1` [Compound 6], in the assay on BALB/3T3, the IC50 was determined as 24 ± 9.3 nM. Also, in the assay with MCF-7, the IC50 came out at 11 ± 1.2 nM and the “MCF-7 SI” value was 2.2. Moreover, in the assay with A549, the IC50 is 15 ± 3.7 nM and the “A549 SI” value is 1.6. For the same compound, in the assay with LoVo/DX, the IC50 is 85 ± 21 nM, the “LoVo/DX RI” value stood at 6.5 and the “LoVo/DX SI” value was 0.3. Moreover, in the assay on LoVo, the IC50 amounted to 13 ± 1.9 nM and the “LoVo SI” value amounted to 1.8.
For the compound `CNc1ccc2c(cc1=O)[C@@H](n1cc(CO)nn1)CCc1cc(OC)c(OC)c(OC)c1-2` [Compound 9], the IC50 in the assay on BALB/3T3 stood at 14 ± 2.1 nM. In the assay with MCF-7, the IC50 worked out at 6.8 ± 1 nM and the “MCF-7 SI” value is reported as 2.1. In the assay on A549, the IC50 amounted to 12 ± 2.1 nM and the “A549 SI” value is recorded as 1.2. Besides, in the assay with LoVo/DX, the IC50 came to 1500 ± 210 nM, the “LoVo/DX RI” value is listed as 140 and the “LoVo/DX SI” value is recorded as below 0.1. In addition, in the assay on LoVo, the IC50 was 11 ± 5.6 nM and the “LoVo SI” value was 1.3.
Turning to `CNc1ccc2c(cc1=O)[C@@H](n1cc(CCl)nn1)CCc1cc(OC)c(OC)c(OC)c1-2` [Compound 10], the IC50 with BALB/3T3 worked out at 13 ± 3 nM. For the same compound, in the assay with MCF-7, the IC50 is 8.6 ± 3.2 nM and the “MCF-7 SI” value is 1.5. Also, in the assay with A549, the IC50 is 13 ± 3.3 nM and the “A549 SI” value turned out to be 1.0. Moreover, in the assay with LoVo/DX, the IC50 turned out to be 95 ± 24 nM, the “LoVo/DX RI” value is 7.9 and the “LoVo/DX SI” value is recorded as 0.1. Also, in the assay on LoVo, the IC50 stood at 12 ± 2.4 nM and the “LoVo SI” value is listed as 1.1.
Regarding `CNc1ccc2c(cc1=O)[C@@H](n1cc(CCO)nn1)CCc1cc(OC)c(OC)c(OC)c1-2` [Compound 11], in the assay with BALB/3T3, the IC50 amounted to 18 ± 7.1 nM. In the assay with MCF-7, the IC50 was 13 ± 1.6 nM and the “MCF-7 SI” value came out at 1.4. Further, in the assay with A549, the IC50 is 14 ± 2 nM and the “A549 SI” value amounted to 1.3. Moreover, in the assay with LoVo/DX, the IC50 was 1700 ± 290 nM, the “LoVo/DX RI” value is on record as 120 and the “LoVo/DX SI” value is on record as below 0.1. In addition, in the assay on LoVo, the IC50 was 14 ± 6.5 nM and the “LoVo SI” value is 1.3.
In the case of `CNc1ccc2c(cc1=O)[C@@H](n1cc(C(C)(C)O)nn1)CCc1cc(OC)c(OC)c(OC)c1-2` [Compound 12], the IC50 with BALB/3T3 is 50 ± 4.5 nM. Further, in the assay with MCF-7, the IC50 was 13 ± 3.4 nM and the “MCF-7 SI” value worked out at 3.8. For the same compound, in the assay with A549, the IC50 stood at 37 ± 4.2 nM and the “A549 SI” value came to 1.4. In the assay on LoVo/DX, the IC50 stood at 2400 ± 550 nM, the “LoVo/DX RI” value came out at 130 and the “LoVo/DX SI” value is listed as below 0.1. In addition, in the assay on LoVo, the IC50 came out at 19 ± 3.9 nM and the “LoVo SI” value is 2.6.

For the origin of these results see publication PMC8515607 (ACS Omega, 2021).
